Article PMC11528066, “Noninvasive Monitoring of Programmed Death-Ligand 2 Expression with Positron Emission Tomography using ^68Ga-labeled Peptide Antagonist in Preclinical and Exploratory Human Studies” (Research, 2024)
Peptide text beside a SMILES is read from it. * marks the point of attachment. NOTA = O=C(O)CN1CCN(CC(=O)O)CCN(CC(=O)*)CC1; AEEEA = NCCOCCOCCOCC(=O)O

Assays:
[1] = In vitro stability in serum (radio-HPLC); type: in vitro ADME; details: room temperature, over 4 h (0.5, 1, 2, 4 h), 3.74 MBq, read-out: in vitro stability in serum (radiochemical purity)
Protocol: The in vitro stability of [^68Ga]Ga-HN11-1 and [^68Ga]Ga-HN11-2 (3.74 MBq) in saline and serum was tested by radio-HPLC analysis of its radiochemical purity after incubation at room temperature for 0.5 , 1 , 2 and 4 h.

[2] = Safety after intravenous injection in volunteers and patients; type: in vivo, human; details: 3 healthy volunteers and 6 patients, intravenous injection 3.1 to 4.9 MBq/kg
Protocol: The program content was explained to all healthy volunteers and cancer patients, and written informed consent was obtained. Whole-body dynamic imaging was conducted for 60 min using a PET/CT 690 Elite scanner (GE Discovery) immediately after intravenous injection of [^68Ga]Ga-HN11-1 (3.1 to 4.9 MBq/kg). A static body scan was performed 15 to 45 min after injection. All cancer patients underwent [^18F]F-FDG and [^68Ga]Ga-HN11-1 PET/CT imaging within 5 d. Two nuclear medicine physicians reconstructed and reviewed the images on GE aw 4.6 workstations and reached a consensus. They delineated the ROIs and measured the values of maximum standard uptake and average standard uptake (SUVmax and SUVmean). The biological distribution of [^68Ga]Ga-HN11-1 in healthy volunteers was determined by SUVmax and SUVmean. The OLINDA/EXM software (version 1.0, Hermes Medical Solutions AB) was used to estimate the human radiation dose based on the SUVmean of each organ.

[3] = Pharmacokinetics in blood; type: in vivo; details: healthy BALB/C mouse, i.v. 5.55 MBq, noncompartmental model, Phoenix WinNonlin 8.1
Protocol: The static PET/CT imaging in A549 and A549-PD-L2 xenograft models after injection of 5.55 to 7.4 MBq (150 to 200 μCi) of [^68Ga]Ga-HN11-1 or [^68Ga]Ga-HN11-2 were acquired at 60 min. In the [^68Ga]Ga-HN11-1 + block or [^68Ga]Ga-HN11-2 + block groups, the xenograft models underwent pretreatment via intravenous injection of HN11-1 or HN-2 (10 mg/kg) before PET/CT imaging. Then, ROIs were delineated for each group. After imaging, tumor tissues from both the A549 and A459-PD-L2 xenograft tumors were extracted, and the PD-L2 expression was tested by IHC. For the pharmacokinetics study, healthy BALB/C mouse received an intravenous injection of 5.55 MBq (150 μCi) of [^68Ga]Ga-HN11-1 and [^68Ga]Ga-HN11-2. Measure the activity of blood samples (%ID/g, mean ± SD) at the corresponding time points, and the time-activity curve was plotted. Subsequently, pharmacokinetic parameters were tested using the noncompartmental model in Phoenix WinNonlin 8.1 software (Certara, USA).

[4] = test system: A549-PD-L2 xenograft tumor models; experiment: Biodistribution (γ-counter); type: in vivo, BALB/C nude mice; details: mean ± SD, n = 3
Protocol: (§1) Micro-PET imaging was conducted using an Inveon PET scanner (Siemens, Germany). Dynamic PET examine were acquired over the first 60 min following the simultaneous injection of 7.4 to 9.25 MBq (200 to 250 μCi) of [^68Ga]Ga-HN11-1 and [^68Ga]Ga-HN11-2. After reconstructing the images and delineating the regions of interest (ROIs), time-radioactivity curves were plotted to obtain the Tumor/Muscle (T/M) ratios. %ID/g represents the percentage of the injected dose of the radiotracer that accumulates in a specific tissue per gram of tissue weight. For the biodistribution study, the xenograft models received an intravenous injection of 3.7 to 5.5 MBq (100 to 150 μCi) of [^68Ga]Ga-HN11-1. After the designated period (10, 30, 60, and 90 min), the mice were euthanized, and important tissues and organs were dissected and collected. The samples were counted using the γ-counter for determining the %ID/g, presented as mean ± standard deviation (SD).
(§2) A549 cell lines were provided by the China Center for Type Culture Collection (CCTCC) and cultured in RPMI-1640 medium supplemented with 10 % fetal bovine serum and 100 U/mL penicillin-streptomycin. The lentivirus system was implemented to introduce PD-L2 (PDCD1LG2) over-expressed cDNA into the A549 cells. The viral vectors were produced in 293T cells and co-transfected with the psAX2, pMD2G and PD-L2 plasmids. A549 cells transduced with the vectors were selectively grown in 1.6 μg/mL puromycin. Transfection efficiency was identified by WB and real-time quantitative PCR. All the cells were cultured in an incubator at 37° C with 5 % CO2 atmosphere. A549 and A549-PD-L2 cells (5 × 10^6, 200 μL)were subcutaneously implanted into the right shoulder of BALB/C nude mice (male, 4-6 weeks), respectively. When the tumors reached to 5 - 8 mm in diameter, the mice were subjected to in vivo and ex vivo studies. All the mice were purchased from the Laboratory Animal Center of Central South University.

[5] = test system: A549-PD-L2 tumor xenograft models; experiment: Dynamic micro-PET imaging in A549-PD-L2 xenografts; type: in vivo, BALB/C nude mice; details: n = 3
Protocol: as §1, §2

remaining at 4 h [1]: > 95% | half-life in blood [3]: 13.37 min | Blood uptake ([4]; 10 min p.i.): 2.83 ± 0.21 %ID/g | Heart uptake ([4]; 10 min p.i.): 1.41 ± 0.10 %ID/g | Liver uptake ([4]; 10 min p.i.): 2.90 ± 0.47 %ID/g | Lung uptake ([4]; 10 min p.i.): 1.56 ± 0.06 %ID/g | Spleen uptake ([4]; 10 min p.i.): 1.91 ± 0.14 %ID/g | Stomach uptake ([4]; 10 min p.i.): 1.27 ± 0.14 %ID/g | Blood uptake ([4]; 30 min p.i.): 1.34 ± 0.16 %ID/g | Heart uptake ([4]; 30 min p.i.): 0.85 ± 0.10 %ID/g | Kidney uptake ([4]; 30 min p.i.): 66.15 ± 0.73 %ID/g | Liver uptake ([4]; 30 min p.i.): 1.44 ± 0.31 %ID/g | Lung uptake ([4]; 30 min p.i.): 0.96 ± 0.09 %ID/g | Spleen uptake ([4]; 30 min p.i.): 0.86 ± 0.16 %ID/g | Stomach uptake ([4]; 30 min p.i.): 0.48 ± 0.04 %ID/g | Blood uptake ([4]; 60 min HN11-1 Block): 0.33 ± 0.02 %ID/g | Heart uptake ([4]; 60 min HN11-1 Block): 0.18 ± 0.02 %ID/g | Kidney uptake ([4]; 60 min HN11-1 Block): 76.77 ± 7.10 %ID/g | Liver uptake ([4]; 60 min HN11-1 Block): 1.20 ± 0.32 %ID/g | Lung uptake ([4]; 60 min HN11-1 Block): 0.92 ± 0.04 %ID/g | Spleen uptake ([4]; 60 min HN11-1 Block): 0.96 ± 0.17 %ID/g | Stomach uptake ([4]; 60 min HN11-1 Block): 0.26 ± 0.05 %ID/g | Blood uptake ([4]; 60 min p.i.): 0.34 ± 0.01 %ID/g | Heart uptake ([4]; 60 min p.i.): 0.18 ± 0.02 %ID/g | Kidney uptake ([4]; 60 min p.i.): 74.56 ± 3.78 %ID/g | Liver uptake ([4]; 60 min p.i.): 0.91 ± 0.14 %ID/g | Lung uptake ([4]; 60 min p.i.): 0.74 ± 0.04 %ID/g | Spleen uptake ([4]; 60 min p.i.): 0.51 ± 0.17 %ID/g | Stomach uptake ([4]; 60 min p.i.): 0.19 ± 0.03 %ID/g | Blood uptake ([4]; 90 min p.i.): 0.16 ± 0.03 %ID/g | Heart uptake ([4]; 90 min p.i.): 0.13 ± 0.01 %ID/g | Kidney uptake ([4]; 90 min p.i.): 87.01 ± 3.40 %ID/g | Liver uptake ([4]; 90 min p.i.): 0.28 ± 0.17 %ID/g | Lung uptake ([4]; 90 min p.i.): 0.40 ± 0.11 %ID/g | Spleen uptake ([4]; 90 min p.i.): 0.21 ± 0.04 %ID/g | Stomach uptake ([4]; 90 min p.i.): 0.20 ± 0.02 %ID/g
SMILES: CC[C@H](C)[C@H](NC(=O)[C@H](CCCNC(=N)N)NC(=O)CNC(=O)[C@H](CCC(=O)O)NC(=O)[C@H](CC(N)=O)NC(=O)[C@H](Cc1ccc(O)cc1)NC(=O)[C@H](CCCNC(=N)N)NC(=O)[C@H](Cc1ccc(O)cc1)NC(=O)[C@H](Cc1c[nH]cn1)NC(=O)COCCOCCOCCNC(=O)CN1CCN(CC(=O)O)CCN(CC(=O)O)CC1)C(=O)N[C@@H](CCCNC(=N)N)C(=O)N[C@@H](CC(N)=O)C(=O)O [[^68Ga]Ga-HN11-1, metal not drawn] ({NOTA-AEEEA}-HYRYNEGRIRN-OH)
tolerability / adverse pharmacological reactions [2]: well tolerated and without adverse pharmacological reactions observed | tumor uptake ([5]; 10 min after injection): 2.61 ± 0.16 %ID/g | tumor uptake ([5]; 20 min after injection): 2.97 ± 0.18 %ID/g | tumor uptake ([5]; 30 min after injection): 3.36 ± 0.29 %ID/g | tumor uptake ([5]; 40 min after injection): 3.22 ± 0.23 %ID/g | tumor uptake ([5]; 50 min after injection): 3.06 ± 0.36 %ID/g | tumor uptake ([5]; 60 min after injection): 2.76 ± 0.42 %ID/g
